One assay deals with ATXN3-HiBiT protein. Nature of the assay: ATXN3 HiBiT assay (Nano Glo HiBiT luminescence). The assay is classed as cell-based. The settings on record: Kelly-ATXN3-HiBiT cells, luminescence read out 48 h after addition of the compound. An excerpt: To monitor ATXN3 protein levels by luminescence, a Kelly-ATXN3-HiBiT cell line with homozygous knock-in of HiBiT at the C-terminus of the endogenous ATXN3 gene was used (knock-in of the HiBiT-tag coding sequence SEQ ID NO. 14: 5′[…]3′ into exon 11 of ATXN3 -position 1114 of ATXN3 RefSeq NM_004993.6). Manipulations of the Kelly-ATXN3-HiBiT cell line that result in downregulation of the ATXN3-HiBiT protein (through modulation of ATXN3-HiBiT pre-mRNA splicing) can be followed by monitoring the luminescence signal of the HiBiT tag using the Nano Glo HiBiT Lytic Detection System (Promega, #N3050). Kelly-ATXN3-HiBiT cells were maintained in RPMI 1640 w/Glutamax (Gibco, #61870010), 10% FBS (Sigma Aldrich, #F8687), 1% Penicillin/Streptomycin (Gibco, #15140-122) at 37° C., 5% CO2. To assess HiBiT-luminescence signal upon compound treatment, 2000 Kelly-ATXN3-HiBiT cells were seeded per well in 384 plate format. Compounds were added 24 h after seeding. ATXN3-HiBiT-luminescence signal was read out 48 h after addition of the compound using the Nano Glo HiBiT Lytic Detection System (Promega, #N3050) according to the manufacturer's instructions. To control for cell viability, an identically prepared sister plate was read out with the CellTiter-Glo® 2.0 Assay (Promega, #G9243) according to the manufacturer's instructions. Fold changes of ATXN3-HiBiT-luminescence and of CellTiter-Glo viability signals were calculated relative to a DMSO control condition.

Assay [1] has as its system ATXN3 transcripts containing exon 4. Nature of the assay: ATXN3 Quantitative Splicing Assay (qPCR, E4E5 primers/probe). In kind it is cell-based, Human. The note with it: SK-N-MC cells, treated with compounds for 24 h, qPCR of transcripts containing exon 4. On the procedure: Human neuroblastoma SK-N-MC cells were plated in 384-well plates at 20,000 cells/well. Twenty-four hours after plating, cells were treated with compounds for 24 h at appropriate concentrations ranging from 30.M to 0.6 nM (0.300 DMS0). Treated cells were lysed in 15 μL of lysis buffer, and cDNA was synthesized using the Fast Advanced Cells-to-Ct kit. Two μL of each cDNA was used in qPCR reactions to confirm the exon 4 skipped transcripts of ATXN3. A second set of primers/probe E4E5 was used to detect the transcripts containing exon 4. The third set of primers/probe E8E9 was used to detect total gene level of ATXN3. The qPCR reactions were prepared in 384-well plates in 10 μL volume, using TaqMan™ Fast Advanced Master Mix with primers and probes shown in the table below. Reactions were run in a Quant Studio 6 qPCR instrument with default settings.
The primers and probes are listed below in Table 4.

The next assay has as its system total ATXN3 protein. Nature of the assay: ATXN3 total protein assay (Mesoscale Discovery). In kind it is cell-based, Human. The settings on record: SK-N-MC cells, 48 hours incubation, MSD assay. On the procedure:
Human neuroblastoma SK-N-MC cells were seeded at 10,000 cells/well in 384 well plates one day prior to compound treatment. The concentrations of compounds were tested at appropriate doses ranging from 30 μM to 0.6 nM. After incubation for 48 hours, the cells were lysed with 25 μL of lysis buffer containing protease inhibitors, and total ATXN3 protein levels were assessed by Mesoscale Discovery (MSD) assay developed with one pair of anti-ATXN3 antibodies. The capture and detect antibodies were raised in mouse and rabbit respectively. Anti-rabbit MSD-ST antibody was used for secondary antibody. ATXN3 recombinant protein was used for standards. The readouts were captured with 35 μL of MSD read buffer and multi-array 384-well high binding plates.

pEC50, pIC50: −log10 of the molar value.

The compound “2-[(R)-2-amino-3-methoxy(1,1- ^2H2)propyl]-5-chloro-3-(1- propynyl)-7-thenylamino-1-oxa-4- azaindene [Compound 44]” gave a pEC50 in the assay with ATXN3-HiBiT protein of 7.00 to 11.00. As to `CC#Cc1c(C2CCC2N)oc2c(NCc3cccs3)cc(Cl)nc12` (single isomer, unassigned) [Compound 50, 2-(2-aminocyclobutyl)-5-chloro-3-(prop-1-yn-1-yl)-N-(thiophen-2-ylmethyl)furo[3,2-b]pyridin-7-amine], the pIC50 in assay [1] (Homo sapiens) is 5.30 to 6.30.

On to `CC#Cc1c(C2CCC2N)oc2c(NCc3cccs3)cc(Cl)nc12` (single isomer, unassigned) [Compound 51, 2-(2-aminocyclobutyl)-5-chloro-3-(prop-1-yn-1-yl)-N-(thiophen-2-ylmethyl)furo[3,2-b]pyridin-7-amine], for which the negative logarithm of the IC50 (pIC50) in assay [1] is 5.30 to 6.30. As to `CC#Cc1c(C[C@H](C)N)oc2c(NCc3cccs3)cc(Cl)nc12` [Compound 1, 2-[(S)-2-aminopropyl]-5-chloro-3-(1-propynyl)-7-thenylamino-1-oxa-4-azaindene], the pIC50 (in assay [1] (Homo sapiens); in the assay on total ATXN3 protein) was 6.30 to 7.00 in each case. The compound further showed a pEC50 with ATXN3-HiBiT protein of 6.30 to 7.00. On to `CC#Cc1c(C[C@H](C)N)oc2c(NCc3ccco3)cc(Cl)nc12` [Compound 2, 2-[(S)-2-aminopropyl]-5-chloro-7-(furfurylamino)-3-(1-propynyl)-1-oxa-4-azaindene], for which the negative-log IC50 (pIC50) (in assay [1] (Homo sapiens); in the assay on total ATXN3 protein) was 6.30 to 7.00 in each case. Also, the pEC50 in the assay on ATXN3-HiBiT protein was 6.30 to 7.00.

In the case of `CC#Cc1c(C[C@@H](N)CC(F)(F)F)oc2c(NCc3ccco3)cc(Cl)nc12` [Compound 3, 2-[(R)-2-amino-4,4,4-trifluorobutyl]-5-chloro-7-(furfurylamino)-3-(1-propynyl)-1-oxa-4-azaindene], the negative-log IC50 (pIC50) (in assay [1] (Homo sapiens); in the assay with total ATXN3 protein) was 6.30 to 7.00 each time. This compound also gave a negative logarithm of the EC50 (pEC50) with ATXN3-HiBiT protein of 6.30 to 7.00. With `CC#Cc1c(C[C@@H](N)CC(F)(F)F)oc2c(NCc3cccs3)cc(Cl)nc12` [Compound 4, 2-[(R)-2-amino-4,4,4-trifluorobutyl]-5-chloro-3-(1-propynyl)-7-thenylamino-1-oxa-4-azaindene], the pIC50 (in assay [1] (Homo sapiens); in the assay with total ATXN3 protein) was 6.30 to 7.00 in each case. The compound further had a pEC50 with ATXN3-HiBiT protein of 6.30 to 7.00. On to `CC#Cc1c(C[C@@H](N)[C@H](C)F)oc2c(NCc3ccco3)cc(Cl)nc12` [Compound 5, 2-[(2R,3S)-2-amino-3-fluorobutyl]-5-chloro-7-(furfurylamino)-3-(1-propynyl)-1-oxa-4-azaindene], for which the pIC50 (in assay [1] (Homo sapiens); in the assay on total ATXN3 protein) was 7.00 to 11.00 throughout. Moreover, the pEC50 in the assay on ATXN3-HiBiT protein is 7.00 to 11.00. Regarding `CC#Cc1c(C[C@@H](N)[C@H](C)F)oc2c(NCc3cccs3)cc(Cl)nc12` [Compound 6, 2-[(2R,3S)-2-amino-3-fluorobutyl]-5-chloro-3-(1-propynyl)-7-thenylamino-1-oxa-4-azaindene], the pIC50 (in assay [1] (Homo sapiens); in the assay on total ATXN3 protein) was 7.00 to 11.00 each time. This compound had a pEC50 in the assay with ATXN3-HiBiT protein of 7.00 to 11.00.

Take `C[C@H](F)[C@H](N)Cc1oc2c(NCc3ccco3)cc(Cl)nc2c1C#CC1CC1` [Compound 7, 2-[(2R,3S)-2-amino-3-fluorobutyl]-5-chloro-3-(2-cyclopropylethynyl)-7-(furfurylamino)-1-oxa-4-azaindene]: the pIC50 (in assay [1] (Homo sapiens); in the assay with total ATXN3 protein) was 6.30 to 7.00 throughout. In addition, the pEC50 in the assay on ATXN3-HiBiT protein is 6.30 to 7.00. `CC#Cc1c(C[C@@H](N)[C@H](C)F)oc2c(NCc3ccccc3F)cc(Cl)nc12` [Compound 13, 2-[(2R,3S)-2-amino-3-fluorobutyl]-5-chloro-7-{[(o-fluorophenyl)methyl]amino}-3-(1-propynyl)-1-oxa-4-azaindene]: the pEC50 in the assay on ATXN3-HiBiT protein is 5.30 to 6.30. The same measure, in the same setting: the value for `CC#Cc1c(C[C@@H](N)[C@H](C)F)oc2c(NCc3c(F)cccc3F)cc(Cl)nc12` [Compound 14, 2-[(2R,3S)-2-amino-3-fluorobutyl]-5-chloro-7-{[(2,6-difluorophenyl)methyl]amino}-3-(1-propynyl)-1-oxa-4-azaindene] was 4.40 to 5.00; that for `CC#Cc1c(C[C@@H](N)CCOC(F)F)oc2c(NCc3cccs3)cc(Cl)nc12` [Compound 31, 2-[(S)-2-amino-4-difluoromethoxybutyl]-5-chloro-3-(1-propynyl)-7-thenylamino-1-oxa-4-azaindene] was 7.00 to 11.00; that for `CC#Cc1c(C[C@@H](N)CO)oc2c(NCc3cccs3)cc(Cl)nc12` [Compound 34, (R)-2-amino-3-[5-chloro-3-(1-propynyl)-7-thenylamino-1-oxa-4-aza-2-indenyl]-1-propanol] was 7.00 to 11.00. Compound `[2H]C([2H])([2H])OC[C@H](N)Cc1oc2c(NCc3cccs3)cc(Cl)nc2c1C#CC` [Compound 35, 2-[2-amino-3-(^2H3)methoxypropyl]-5-chloro-3-(1-propynyl)-7-thenylamino-1-oxa-4-azaindene] showed a pEC50 in the assay with ATXN3-HiBiT protein of 7.00 to 11.00.

As for `CC#Cc1c(C[C@@H](N)[C@H](C)F)oc2c(NCc3cccs3)c(F)c(Cl)nc12` [Compound 37, 2-[(2R,3S)-2-amino-3-fluorobutyl]-5-chloro-6-fluoro-3-(1-propynyl)-7-thenylamino-1-oxa-4-azaindene], the pIC50 in assay [1] (Homo sapiens) was 5.30 to 6.30. For `[2H]C([2H])([2H])OC[C@H](N)Cc1oc2c(NC([2H])([2H])c3cccs3)cc(Cl)nc2c1C#CC` [Compound 40, 2-[(R)-2-amino-3-(^2H3)methoxypropyl]-5-chloro-3-(1-propynyl)-7-{[(2-thienyl)(^2H2)methyl]amino}-1-oxa-4-azaindene], in the assay with ATXN3-HiBiT protein, the pEC50 was 7.00 to 11.00. In the case of `[2H]C([2H])([2H])OCC[C@H](N)Cc1oc2c(NCc3cccs3)cc(Cl)nc2c1C#CC` [Compound 42, 2-[(S)-2-amino-4-(^2H3)methoxybutyl]-5-chloro-3-(1-propynyl)-7-thenylamino-1-oxa-4-azaindene], the pEC50 in the assay with ATXN3-HiBiT protein was 7.00 to 11.00. Still for that read-out and setting: the value for `[2H]C([2H])(c1oc2c(NCc3cccs3)cc(Cl)nc2c1C#CC)[C@H](C)N` [Compound 43, 2-[(S)-2-amino(1,1-^2H2)propyl]-5-chloro-3-(1-propynyl)-7-thenylamino-1-oxa-4-azaindene] was 7.00 to 11.00; that for `[2H]C([2H])(c1oc2c(NCc3cccs3)cc(Cl)nc2c1C#CC)[C@@H](N)CF` [Compound 45, 2-[(R)-2-amino-3-fluoro(1,1- ^2H2)propyl]-5-chloro-3-(1-propynyl)-7-thenylamino-1-oxa-4-azaindene] was 7.00 to 11.00. Take `[2H]C([2H])([2H])OC([2H])([2H])[C@H](N)Cc1oc2c(NCc3cccs3)cc(Cl)nc2c1C#CC` [Compound 47, 2-[(R)-2-amino-3-(^2H3)methoxy(3,3-^2H2)propyl]-5-chloro-3-(1-propynyl)-7-thenylamino-1-oxa-4-azaindene]: the pEC50 in the assay on ATXN3-HiBiT protein was 7.00 to 11.00. Regarding `[2H]C([2H])(OC(F)F)[C@H](N)Cc1oc2c(NCc3cccs3)cc(Cl)nc2c1C#CC` [Compound 48, 2-[(R)-2-amino-3-difluoromethoxy(3,3-^2H2)propyl]-5-chloro-3-(1-propynyl)-7-thenylamino-1-oxa-4-azaindene], the pEC50 with ATXN3-HiBiT protein was 7.00 to 11.00. On to `CC#Cc1c([C@H]2CCCC[C@@H]2N)oc2c(NCc3cccs3)cc(Cl)nc12` [Compound 49, 2-[(1S,2S)-2-aminocyclohexyl]-5-chloro-3-(1-propynyl)-7-thenylamino-1-oxa-4-azaindene], for which, in assay [1] (Homo sapiens), the pIC50 is 7.00 to 11.00.

In the case of `CC#Cc1c([C@H]2CC(F)(F)CC[C@@H]2N)oc2c(NCc3cccs3)cc(Cl)nc12` [Compound 52, 2-[(1S,2S)-2-amino-5,5-difluorocyclohexyl]-5-chloro-3-(1-propynyl)-7-thenylamino-1-oxa-4-azaindene], the negative-log IC50 (pIC50) in assay [1] (Homo sapiens) was 7.00 to 11.00.
